# Test system: IL-2 production
# Experiment: Inhibition of IL-2 production in PHA-activated Jurkat cells (ELISA)
# Assay type: cell-based
# Conditions: Homo sapiens, 20 h, PHA 2.5 μg/mL, IL-2 ELISA, values given as ranges
# Procedure: Jurkat cells were placed in a 96 well plate (0.5 million cells per well in 1% FBS medium) then a test compound of this invention was added at different concentrations. After 10 minutes, the cells were activated with PHA (final concentration 2.5 μg/mL) and incubated for 20 hours at 37° C. under CO2. The final volume was 200 μL. Following incubation, the cells were centrifuged and the supernatants collected and stored at −70° C. prior to assaying for IL-2 production. A commercial ELISA kit (IL-2 Eli-pair, Diaclone Research, Besancon, France) was used to detect production of IL-2, from which dose response curves were obtained. The IC50 value was calculated as the concentration at which 50% of maximum IL-2 production after stimulation was inhibited versus a non-stimulation control. Inhibition of other cytokines, such as IL-4, IL-5, IL-13, GM-CSF, TNF-α, and INF-γ, can be tested in a similar manner using a commercially available ELISA kit for each cytokine.
row,SMILES,IC50 [nM]
1,O=C(Nc1cnc2c(n1)CCCC1=C2CN(c2nccs2)CC1)c1c(F)cccc1F [Compound 91],30 to 100
2,Cc1nccn1-c1ccc2c(c1)-c1sc(C(=O)Nc3c(F)cccc3F)nc1CCC2 [Compound 115],250 to 500
3,O=C(Nc1c(F)cc(F)cc1F)c1nc2c(s1)-c1cc(-n3ccnc3)ccc1CCC2 [Compound 130],30 to 100
4,Cc1nc2c(cc1C(=O)Nc1c(F)cccc1F)CCCc1ccc(-c3cccnc3)cc1-2 [Compound 48],100 to 250
5,O=C(Nc1ccc(F)cc1F)c1nc2c(s1)-c1cc(-n3ccnc3)ccc1CCC2 [Compound 122],100 to 250
6,O=C(Nc1c(F)cccc1F)c1nc2c(s1)-c1cc(-n3ccnc3)ccc1CCC2 [Compound 113],≤ 30
7,COc1ccc2c(c1)CCCc1sc(NC(=O)c3c(F)cccc3F)nc1-2 [Compound 42],> 1000
8,Cc1cnccc1NC(=O)c1nc2c(s1)-c1cc(-n3ccnc3)ccc1CCC2 [Compound 132],100 to 250
9,CCc1cn(-c2ccc3c(c2)-c2ncc(NC(=O)c4c(F)cccc4F)nc2CCC3)cn1 [Compound 134],≤ 30
10,O=C(Nc1c(F)cccc1F)c1cc2c(s1)-c1cc(Br)ccc1CCC2 [Compound 1],≤ 30

# Now from value to compound:
row,IC50 [nM],SMILES
1,> 1000,O=C(Nc1nc2c(s1)CCCc1ccc(Br)cc1-2)c1c(F)cccc1F [Compound 43]
2,100 to 250,O=C(Nc1c(F)cccc1F)c1cnc2c(c1)CCCc1ccc(-c3cccnc3)cc1-2 [Compound 45]
3,30 to 100,O=C(Nc1c(F)cccc1F)c1nc2c(s1)-c1cc(-n3cnnc3)ccc1CCC2 [Compound 121]
4,30 to 100,Cc1cn(-c2ccc3c(c2)-c2sc(C(=O)Nc4c(F)cccc4F)nc2CCC3)cn1 [Compound 117]
5,≤ 30,O=C(Nc1c(F)cccc1F)c1cc2c(s1)-c1cc(-c3cccnc3)ccc1CCC2 [Compound 2]
6,≤ 30,O=C(Nc1c(F)ccc(F)c1F)c1nc2c(s1)-c1cc(-n3ccnc3)ccc1CCC2 [Compound 126]
7,250 to 500,O=C(Nc1ccc(F)c(F)c1F)c1nc2c(s1)-c1cc(-n3ccnc3)ccc1CCC2 [Compound 124]

# Reference: patent publication US20110052643A1, “COMPOUNDS FOR INFLAMMATION AND IMMUNE-RELATED USES” (Synta Pharmaceuticals Corp., priority 2008, published 2011)
